Results as given in patent publication EP3807270B1, “NOVEL HETEROARYL HETEROCYCLYL COMPOUNDS FOR THE TREATMENT OF AUTOIMMUNE DISEASE” (F. Hoffmann-La Roche AG, priority 2018, dated 2019).
Blank lines part the entries; values can stand above or below the compound they belong to.

Key:
hERG channel = molecular target: T1, hERG channel (Homo sapiens, UniProt Q12809); assay: hERG channel inhibition assay (patch-clamp, CHO hERG cells); type: cell-based; conditions: for IC50 / IC20: CHO hERG cells, whole-cell patch-clamp; for IC20: human, CHO cells stably expressing hERG; for hERG IC20 / TLR8 IC50 / hERG IC20 / TLR7 IC50 / hERG IC20 / TLR9 IC50: safety ratio; for hERG IC20 / TLR7 IC50: TLR7 IC50 of ER compounds from Table 1; for hERG IC20 / TLR9 IC50: TLR9 IC50 of ER compounds from Table 1
T1 construct: expressed in transfected cells; host or cells: CHO (Chinese hamster ovary)
Method in brief: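 Whole-cell voltage-clamp on CHO cells stably expressing human hERG, IKhERG evoked at 0.1 Hz. Compound applied at rising concentrations, each held 3-10 min to steady state; current amplitude and kinetics expressed against control taken as 100%.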

hTLR9 = molecular target: T2, hTLR9 (Homo sapiens, UniProt Q9NR96); assay: HEK293-Blue-hTLR-9 cells assay (SEAP reporter, ODN2006 stimulation); type: cell-based; parameters: host or cells: HEK293 (HEK-Blue); conditions: HEK293-Blue-hTLR9 cells, ODN2006, 20 hrs; read-out: HEK/hTLR9 IC50
T2 sequence (Q9NR96 26-1032): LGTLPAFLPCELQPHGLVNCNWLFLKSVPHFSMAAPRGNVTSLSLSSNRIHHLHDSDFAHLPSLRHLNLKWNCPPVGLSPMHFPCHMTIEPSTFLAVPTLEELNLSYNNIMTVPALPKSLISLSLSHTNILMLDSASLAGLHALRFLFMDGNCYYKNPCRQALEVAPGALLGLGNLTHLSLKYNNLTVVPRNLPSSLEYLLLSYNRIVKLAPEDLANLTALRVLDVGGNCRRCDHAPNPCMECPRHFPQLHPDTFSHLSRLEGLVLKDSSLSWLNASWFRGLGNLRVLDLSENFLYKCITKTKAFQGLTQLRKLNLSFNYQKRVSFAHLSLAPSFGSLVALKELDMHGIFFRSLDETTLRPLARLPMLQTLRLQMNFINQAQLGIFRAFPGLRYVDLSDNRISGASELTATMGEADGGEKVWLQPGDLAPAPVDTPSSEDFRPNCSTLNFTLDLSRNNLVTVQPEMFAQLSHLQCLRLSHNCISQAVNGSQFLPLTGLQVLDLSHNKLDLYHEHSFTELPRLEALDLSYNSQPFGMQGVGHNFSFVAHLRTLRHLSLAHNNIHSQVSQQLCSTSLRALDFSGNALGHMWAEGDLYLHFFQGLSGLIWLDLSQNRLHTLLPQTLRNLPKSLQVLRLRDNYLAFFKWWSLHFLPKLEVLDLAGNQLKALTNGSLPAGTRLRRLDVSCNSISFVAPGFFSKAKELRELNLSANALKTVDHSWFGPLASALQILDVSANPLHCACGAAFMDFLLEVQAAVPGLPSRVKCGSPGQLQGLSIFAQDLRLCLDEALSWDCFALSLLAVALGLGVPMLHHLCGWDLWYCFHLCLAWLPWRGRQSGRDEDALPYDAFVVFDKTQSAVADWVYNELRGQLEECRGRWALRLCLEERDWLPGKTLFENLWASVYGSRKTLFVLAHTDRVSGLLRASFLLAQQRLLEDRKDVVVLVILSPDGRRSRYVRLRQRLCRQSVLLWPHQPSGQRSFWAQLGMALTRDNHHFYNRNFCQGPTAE
Method in brief: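 HEK293-Blue-hTLR9 cells (250,000-450,000 cells/mL) in DMEM with 10% FBS were treated with serially diluted compound (1% DMSO final) plus ODN2006 for 20 hrs at 37 °C. Supernatant SEAP activity was measured with QUANTI-Blue substrate for 2 hrs at 37 °C, reading absorbance at 620-655 nm.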

T1 sequence (Q12809 whole entry): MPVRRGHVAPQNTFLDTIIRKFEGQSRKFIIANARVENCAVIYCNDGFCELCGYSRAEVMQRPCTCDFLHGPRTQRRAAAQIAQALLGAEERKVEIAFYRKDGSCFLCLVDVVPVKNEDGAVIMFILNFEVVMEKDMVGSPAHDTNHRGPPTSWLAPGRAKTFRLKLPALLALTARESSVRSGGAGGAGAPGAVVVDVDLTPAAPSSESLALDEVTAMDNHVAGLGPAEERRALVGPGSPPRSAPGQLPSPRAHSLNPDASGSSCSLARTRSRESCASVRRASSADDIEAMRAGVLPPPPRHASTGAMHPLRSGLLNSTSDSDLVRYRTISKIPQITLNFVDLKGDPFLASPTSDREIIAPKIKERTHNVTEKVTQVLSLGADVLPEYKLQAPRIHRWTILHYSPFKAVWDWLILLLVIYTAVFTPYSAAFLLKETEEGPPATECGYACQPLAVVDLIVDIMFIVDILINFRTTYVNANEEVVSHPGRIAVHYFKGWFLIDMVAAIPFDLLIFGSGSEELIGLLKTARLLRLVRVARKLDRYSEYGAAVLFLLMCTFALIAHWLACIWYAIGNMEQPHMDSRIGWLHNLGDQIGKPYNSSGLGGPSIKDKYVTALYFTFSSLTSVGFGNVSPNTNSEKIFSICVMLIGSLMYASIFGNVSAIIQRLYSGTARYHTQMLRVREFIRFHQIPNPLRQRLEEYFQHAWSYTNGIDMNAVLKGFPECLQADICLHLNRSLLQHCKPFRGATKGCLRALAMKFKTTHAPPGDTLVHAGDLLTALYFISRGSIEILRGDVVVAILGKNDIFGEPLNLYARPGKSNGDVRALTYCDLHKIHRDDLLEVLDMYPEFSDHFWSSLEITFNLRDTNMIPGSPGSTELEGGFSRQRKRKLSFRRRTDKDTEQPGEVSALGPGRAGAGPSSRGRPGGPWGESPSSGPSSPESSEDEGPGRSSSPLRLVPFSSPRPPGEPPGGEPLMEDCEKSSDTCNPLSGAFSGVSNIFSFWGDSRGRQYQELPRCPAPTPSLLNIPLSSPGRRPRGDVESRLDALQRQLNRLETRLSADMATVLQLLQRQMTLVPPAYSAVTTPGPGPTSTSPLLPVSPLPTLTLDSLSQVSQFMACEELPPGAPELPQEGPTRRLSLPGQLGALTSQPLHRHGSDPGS

SMILES: C[C@@H]1CN(c2ccc(C#N)c3ncccc23)C[C@H](CN2CCN(c3cnc4c(c3)CNC4)CC2)O1 [Example 10, 5-[(2S,6R)-2-[[4-(6,7-dihydro-5H-pyrrolo[3,4-b]pyridin-3-yl)piperazin-1-yl]methyl]-6-methyl-morpholin-4-yl] quinoline-8-carbonitrile]
IC50 (hERG channel): > 20 µM
IC20 (hERG channel): > 10 µM
hERG IC20 / TLR8 IC50 (hERG channel): >442.5
hERG IC20 / TLR7 IC50 (hERG channel): >289.9
hERG IC20 / TLR9 IC50 (hERG channel): >187.3
IC50 (hTLR9): 0.053 µM

SMILES: C[C@@H]1CN(c2ccc(C#N)c3nccnc23)C[C@H](CN2CCN(c3cc4c(cn3)[C@@H](C)NCC4)CC2)O1 (single isomer, unassigned) [Example 86]
IC50 (hTLR9): 0.117 µM

SMILES: C[C@@H]1CN(c2ccc(C#N)c3nccnc23)C[C@H](CN2CCN(c3cc4c(cn3)CCN[C@@H]4C)CC2)O1 (single isomer, unassigned) [Example 87]
IC50 (hTLR9): 0.097 µM

SMILES: C[C@@H]1CN(c2ccc(C#N)c3ncccc23)C[C@H](CN2CCN(c3ccc4c(c3)CNCC4)CC2)O1 [Example 9, 5-[(2R,6S)-2-methyl-6-[[4-(1,2,3,4-tetrahydroisoquinolin-7-yl)piperazin-1-yl]methyl]morpholin-4-yl]quinoline-8-carbonitrile]
IC50 (hERG channel): > 20 µM
IC20 (hERG channel): 6.16 µM
hERG IC20 / TLR8 IC50 (hERG channel): 410.5
hERG IC20 / TLR7 IC50 (hERG channel): 148.0
hERG IC20 / TLR9 IC50 (hERG channel): 80.4
IC50 (hTLR9): 0.077 µM

SMILES: C[C@@H]1CN(c2ccc(C#N)c3ncccc23)C[C@H](CN2CCN(c3ccncc3)CC2)O1 [ER-888286, reference compound]
IC50 (hERG channel): 1.3 µM
IC20 (hERG channel): 0.348 µM
hERG IC20 / TLR7 IC50 (hERG channel): 0.3
hERG IC20 / TLR9 IC50 (hERG channel): 0.2

Further lines, results first:

IC50 (hTLR9): 0.091 µM
SMILES: [2H]c1ccc2c(N3C[C@H](CN4CCN(c5ccc6c(n5)CN[C@@H]6C)CC4)O[C@H](C)C3)ccc(C#N)c2n1 (single isomer, unassigned) [Example 98]

IC50 (hTLR9): 0.073 µM
SMILES: C[C@@H]1CN(c2ccc(C#N)c3nccnc23)C[C@H](CN2CCN(c3cc4c(cn3)CCN[C@H]4C)CC2)O1 (single isomer, unassigned) [Example 88]

IC50 (hTLR9): 0.069 µM
SMILES: [2H]c1ccc2c(N3C[C@H](CN4CCN(c5ccc6c(n5)CN[C@H]6C)CC4)O[C@H](C)C3)ccc(C#N)c2n1 (single isomer, unassigned) [Example 99]

IC50 (hTLR9): 0.071 µM
SMILES: [2H]c1nc2c(C#N)ccc(N3C[C@H](CN4CCN(c5cc6c(cn5)[C@H](C)NCC6)CC4)O[C@H](C)C3)c2nc1[2H] (single isomer, unassigned) [Example 94]

IC50 (hTLR9): 0.116 µM
SMILES: [2H]c1nc2c(C#N)ccc(N3C[C@H](CN4CCN(c5ccc6c(n5)CN[C@H]6C)CC4)O[C@H](C)C3)c2nc1[2H] (single isomer, unassigned) [Example 96]

IC50 (hTLR9): 0.11 µM
SMILES: [2H]c1nc2c(C#N)ccc(N3C[C@H](CN4CCN(c5ccc6c(n5)CN[C@@H]6C)CC4)O[C@H](C)C3)c2nc1[2H] (single isomer, unassigned) [Example 97]

IC50 (hTLR9): 0.103 µM
SMILES: [2H]c1nc2c(C#N)ccc(N3C[C@H](CN4CCN(c5cc6c(cn5)[C@@H](C)NCC6)CC4)O[C@H](C)C3)c2nc1[2H] (single isomer, unassigned) [Example 95]
